Test results: article PMC10207366, “Screening and Biological Evaluation of Soluble Epoxide Hydrolase Inhibitors: Assessing the Role of Hydrophobicity in the Pharmacophore-Guided Search of Novel Hits” (Journal of Chemical Information and Modeling, 2023)
Read-outs that look alike come from different tables or passages of the source.

Legend:
[1] = molecular target: T1, purified recombinant hsEH (Homo sapiens, UniProt P34913); test: fluorescence-based sEH IC50 assay (CMNPC substrate); format: biochemical
T1 sequence (P34913 1-555): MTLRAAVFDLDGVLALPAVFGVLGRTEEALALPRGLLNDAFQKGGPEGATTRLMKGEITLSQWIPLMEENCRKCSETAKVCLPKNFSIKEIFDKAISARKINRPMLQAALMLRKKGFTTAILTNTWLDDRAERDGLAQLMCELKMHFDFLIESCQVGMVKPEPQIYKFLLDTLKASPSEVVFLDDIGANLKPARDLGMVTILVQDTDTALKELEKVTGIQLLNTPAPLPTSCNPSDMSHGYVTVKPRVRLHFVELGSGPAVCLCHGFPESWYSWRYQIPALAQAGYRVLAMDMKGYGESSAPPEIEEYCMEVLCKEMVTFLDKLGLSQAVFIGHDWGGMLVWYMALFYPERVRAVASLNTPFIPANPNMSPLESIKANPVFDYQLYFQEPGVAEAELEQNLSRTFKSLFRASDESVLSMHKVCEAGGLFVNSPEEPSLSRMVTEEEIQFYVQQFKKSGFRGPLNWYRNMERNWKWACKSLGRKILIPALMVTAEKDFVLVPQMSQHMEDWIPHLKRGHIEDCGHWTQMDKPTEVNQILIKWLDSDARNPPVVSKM
Method: (§1) The IC50 values of the 18 compounds selected from the log P + HB and QE + R3 pharmacophore ranking were determined using a fluorescence-based assay[68] with either purified recombinant hsEH, mouse sEH (msEH), or rat sEH (rsEH). The enzyme was incubated at 30 °C with the inhibitors ([I]final = 0.4–50,000 nM) for 5 min in 100 mM sodium phosphate buffer (200 μL, pH 7.4) containing 0.1 mg/mL of […] (BSA) and 1% dimethyl sulfoxide (DMSO). The substrate (cyano(6-methoxynaphthalen-2-yl)methyl((3-phenyloxiran-2-yl)methyl)carbonate; CMNPC) was then added ([S]final = 5 μM). The activity was assessed by measuring the appearance of the fluorescent 6-methoxynaphthaldehyde product (λex = 330 nm, λem = 465 nm) every 30 s for 10 min at 30 °C on a SpectraMax M2 (Molecular Devices, CA). The results were obtained by regression analysis from a linear region of the curve.

rat sEH (rsEH) = molecular target: T2, rat sEH (rsEH) (Rattus norvegicus, UniProt P80299); test: as above; format: biochemical; conditions: experimental
T2 sequence (P80299 1-554): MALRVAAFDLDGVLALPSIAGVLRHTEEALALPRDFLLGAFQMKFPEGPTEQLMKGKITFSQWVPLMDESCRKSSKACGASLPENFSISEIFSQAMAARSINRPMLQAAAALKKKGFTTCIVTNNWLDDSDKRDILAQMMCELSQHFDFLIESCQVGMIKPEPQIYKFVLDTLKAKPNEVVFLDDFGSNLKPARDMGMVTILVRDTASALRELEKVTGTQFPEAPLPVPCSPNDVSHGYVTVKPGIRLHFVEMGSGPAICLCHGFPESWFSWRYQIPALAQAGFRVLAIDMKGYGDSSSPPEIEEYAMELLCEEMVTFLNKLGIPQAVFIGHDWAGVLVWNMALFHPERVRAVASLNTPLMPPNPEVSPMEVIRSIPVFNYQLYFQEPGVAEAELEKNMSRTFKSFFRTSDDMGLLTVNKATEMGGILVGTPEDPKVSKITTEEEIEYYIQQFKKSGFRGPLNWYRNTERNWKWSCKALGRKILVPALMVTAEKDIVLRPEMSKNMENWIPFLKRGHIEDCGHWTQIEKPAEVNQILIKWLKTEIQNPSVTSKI
Method: as §1

mouse sEH (msEH) = molecular target: T3, mouse sEH (msEH) (Mus musculus, UniProt P34914); test: as above; format: biochemical; conditions: experimental
T3 sequence (P34914 1-554): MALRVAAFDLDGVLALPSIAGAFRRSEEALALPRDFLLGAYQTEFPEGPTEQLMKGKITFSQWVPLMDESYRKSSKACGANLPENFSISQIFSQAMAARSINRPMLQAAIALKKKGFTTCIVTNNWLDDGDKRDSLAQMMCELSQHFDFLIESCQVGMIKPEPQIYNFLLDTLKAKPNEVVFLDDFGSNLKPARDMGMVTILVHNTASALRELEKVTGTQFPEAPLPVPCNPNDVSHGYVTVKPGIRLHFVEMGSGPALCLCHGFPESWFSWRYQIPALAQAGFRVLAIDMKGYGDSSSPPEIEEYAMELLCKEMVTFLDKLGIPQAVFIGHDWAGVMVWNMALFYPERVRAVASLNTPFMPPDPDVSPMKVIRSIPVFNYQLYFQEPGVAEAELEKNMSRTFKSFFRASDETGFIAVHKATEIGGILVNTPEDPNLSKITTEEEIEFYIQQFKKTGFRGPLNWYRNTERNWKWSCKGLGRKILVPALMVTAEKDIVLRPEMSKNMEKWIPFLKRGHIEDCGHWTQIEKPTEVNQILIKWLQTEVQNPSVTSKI
Method: as §1

hsEH = conditions: training set, Table S1; ref reference publication (DOI) of Table S1; cited from earlier work
[2] = experimental, human sEH, read-out: pIC50 hsEH (converted)

Row | Structure (SMILES) | IC50 [1, 2] | IC50 (rat sEH (rsEH)) | IC50 (mouse sEH (msEH)) | further results
1 | Cc1ccc(C(C)C)c(OCc2ccc(C(=O)NNC(=O)NC34CC5CC(CC(C5)C3)C4)o2)c1 [AK-968/15603026, Cc1ccc(C(C)C)c(OCc2ccc(C(=O)NNC(=O)NC34CC5CC(CC(C5)C3)C4)o2)c1] | 126 nM | 39.8 nM | 316 nM | 
2 | O=C(N/N=C/c1c2ccccc2cc2ccccc12)NC12CC3CC(CC(C3)C1)C2 [AK-968/40204236, O=C(N/N=C/c1c2ccccc2cc2ccccc12)NC12CC3CC(CC(C3)C1)C2] |  |  |  | pIC50 rsEH (rat sEH (rsEH)): 6.5; pIC50 msEH (mouse sEH (msEH)): 5.8
3 | O=C(NCCC(c1ccccc1)c1ccccc1)NC1CCCCC1 [AK-968/41927527, O=C(NCCC(c1ccccc1)c1ccccc1)NC1CCCCC1] | 0.398 nM | 0.398 nM | 1.26 nM | IC50 hsEH ([1]; human enzyme): subnanomolar
4 | O=C(CSc1nc(-c2ccccc2)cn1-c1ccccc1)NC(=O)Nc1ccccc1 [AO-476/43362680, O=C(CSc1nc(-c2ccccc2)cn1-c1ccccc1)NC(=O)Nc1ccccc1] | 3980 nM | 25100 nM | 25100 nM | 
5 | O=C(NC1CCC(Oc2ccc(C(=O)O)cc2)CC1)NC12CC3CC(CC(C3)C1)C2 (stereo not drawn) [TR_mol5, 4-[(trans-4-{[(3s,5s,7s)-tricyclo[3.3.1.1∼3,7∼]dec-1-ylcarbamoyl]amino}cyclohexyl)oxy]benzoic acid] |  |  |  | pIC50 (hsEH): 8.9
6 | O=C(Nc1ccc2c(c1)-c1ccccc1S2(=O)=O)N1CCC(F)(F)CC1 [TR_mol15, N-(5,5-dioxodibenzothiophen-2-yl)-4,4-difluoro-piperidine-1-carboxamide] |  |  |  | pIC50 (hsEH): 7.8
7 | O=C(NC[C@H]1COc2ccccc2O1)c1ccc2c(c1)N(Cc1cccc(Cl)c1)C(=O)CS2 [TR_mol17, 4-[(3-chlorophenyl)methyl]-N-[[(3S)-2,3-dihydro-1,4-benzodioxin-3-yl]methyl]-3-oxidanylidene-1,4-benzothiazine-6-carboxamide] |  |  |  | pIC50 (hsEH): 7.5
8 | O=C(O)CCCNC(=O)NC1CCCCC1 [TR_mol23] |  |  |  | pIC50 (hsEH): 3.3
9 | O=C(O)CCCCCNC(=O)NC1CCCCC1 [TR_mol33] |  |  |  | pIC50 (hsEH): 3.6
10 | O=C(COC(=O)c1ccc(N2CCCC2=O)cc1)NC(=O)NC12CC3CC(CC(C3)C1)C2 [Z23294293, O=C(COC(=O)c1ccc(N2CCCC2=O)cc1)NC(=O)NC12CC3CC(CC(C3)C1)C2] | 100 nM | 39.8 nM | 631 nM | 
11 | O=C(NCCC(=O)N1CCN(S(=O)(=O)c2ccccc2F)CC1)NC12CC3CC(CC(C3)C1)C2 [Z29532165, O=C(NCCC(=O)N1CCN(S(=O)(=O)c2ccccc2F)CC1)NC12CC3CC(CC(C3)C1)C2] | 501 nM | 39.8 nM | 398 nM | 
12 | O=C(NNC(=O)c1ccc(COc2ccccc2)cc1)NC12CC3CC(CC(C3)C1)C2 [Z44611499, O=C(NNC(=O)c1ccc(COc2ccccc2)cc1)NC12CC3CC(CC(C3)C1)C2] | 6.31 nM | 20 nM | 126 nM | IC50 ([1]; human enzyme, read-out: IC50 hsEH): < 20 nM
13 | CC(C(=O)NC(=O)NC12CC3CC(CC(C3)C1)C2)N1CCN(C(=O)C2COc3ccccc3O2)CC1 (stereo not shown) [Z65159029, CC(C(=O)NC(=O)NC12CC3CC(CC(C3)C1)C2)N1CCN(C(=O)C2COc3ccccc3O2)CC1] | 5010 nM | 2000 nM | 20000 nM | 
14 | O=C(NCc1ccc(N2CCCC2=O)cc1)NCc1cccc(C(F)(F)F)c1 [Z211761694, O=C(NCc1ccc(N2CCCC2=O)cc1)NCc1cccc(C(F)(F)F)c1] | 200 nM | 200 nM | 501 nM | 
15 | CC(NC(=O)NCc1ccc(N2CCCC2=O)cc1)c1cccc(Cl)c1 (stereo not shown) [Z211852480, CC(NC(=O)NCc1ccc(N2CCCC2=O)cc1)c1cccc(Cl)c1] | 126 nM | 501 nM | 631 nM | 
16 | CC(C)N1CCC(NC(=O)NCCC(c2ccccc2)c2ccccc2)CC1 [Z339670416, CC(C)N1CCC(NC(=O)NCCC(c2ccccc2)c2ccccc2)CC1] | 100 nM | 501 nM | 1580 nM | 
17 | NC(=O)COc1ccc(NC(=O)NCCC(c2ccccc2)c2ccccc2)cc1 [Z339843288, NC(=O)COc1ccc(NC(=O)NCCC(c2ccccc2)c2ccccc2)cc1] | 1.26 nM | 1 nM | 1.26 nM | 
18 | O=C(NCc1ccc(-c2nc3ccccc3s2)o1)NC1CCCC(C(F)(F)F)C1 (stereo not shown) [Z353003074, O=C(NCc1ccc(-c2nc3ccccc3s2)o1)NC1CCCC(C(F)(F)F)C1] | 6.31 nM | 5.01 nM | 10 nM | 
19 | CC1CCCCC1OCCNC(=O)Nc1cccc(OCc2ccccn2)c1 (stereo not shown) [Z416144030, CC1CCCCC1OCCNC(=O)Nc1cccc(OCc2ccccn2)c1] | 15.8 nM | 20 nM | 200 nM | 
20 | CC1CCC(NC(=O)Nc2cccc(Cn3nc4ccccn4c3=O)c2)CC1 (stereo not shown) [Z436130862, CC1CCC(NC(=O)Nc2cccc(Cn3nc4ccccn4c3=O)c2)CC1] | 0.794 nM | 1 nM | 1 nM | IC50 hsEH ([1]; human enzyme): subnanomolar
21 | CC(=O)CCc1ccc(OCC(=O)N2CCCC(CNC(=O)Nc3ccc(C)cc3)C2)cc1 (stereo not shown) [Z1033382608, CC(=O)CCc1ccc(OCC(=O)N2CCCC(CNC(=O)Nc3ccc(C)cc3)C2)cc1] | 501 nM | 398 nM | 3160 nM | 
